From article PMC5877965 (Proceedings of the National Academy of Sciences of the …, 2018)
pKd: −log10 of the molar value.

Columns and labels:
[1] = molecular target: human M2 mAChR (Homo sapiens, UniProt P08172); format: binding
[2] = molecular target: all five receptor subtypes; conditions: cited from earlier work

Sequence of human M2 mAChR (P08172 whole entry): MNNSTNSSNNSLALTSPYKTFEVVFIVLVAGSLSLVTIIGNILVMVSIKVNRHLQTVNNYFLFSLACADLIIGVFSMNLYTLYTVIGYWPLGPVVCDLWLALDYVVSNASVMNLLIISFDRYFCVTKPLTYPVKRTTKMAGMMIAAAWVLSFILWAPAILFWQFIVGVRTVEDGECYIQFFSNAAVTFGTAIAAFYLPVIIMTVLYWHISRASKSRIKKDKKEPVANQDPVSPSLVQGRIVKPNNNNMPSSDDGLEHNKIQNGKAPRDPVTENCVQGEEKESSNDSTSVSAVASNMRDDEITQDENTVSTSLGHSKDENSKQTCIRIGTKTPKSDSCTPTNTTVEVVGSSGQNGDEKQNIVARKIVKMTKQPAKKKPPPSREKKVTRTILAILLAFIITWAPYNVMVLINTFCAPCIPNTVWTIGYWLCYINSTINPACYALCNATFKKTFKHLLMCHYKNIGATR

Compound	allosteric effect on [3H]NMS binding (in words) [1]	pKd [2]
COc1nc2sc(C(=O)NC3CC3)c(N)c2c(C)c1Cl [LY2033298]	small NAM effect	–
CN1[C@@H]2C[C@@H](OC(=O)[C@H](CO)c3ccccc3)C[C@H]1[C@@H]1O[C@@H]12 [scopolamine]	–	8.68 to 9.40
CC[N+](CC)(CC)CCOc1cccc(OCC[N+](CC)(CC)CC)c1OCC[N+](CC)(CC)CC [Gallamine, gallamine]	substantially reduced the specific binding	–
